Laboratory results: patent US12180192B2, “Modulators of THR-β and methods of use thereof” (ALIGOS THERAPEUTICS, INC., priority 2019, dated 2024)

Key:
[1] = target: T1, human thyroid receptor beta ligand-binding domain (LBD) (Homo sapiens, UniProt P10828); assay: TR-FRET thyroid receptor beta coactivator assay (THR biochemical assay, Assay 1); details: for EC50: THR-beta, TR-FRET coactivator assay, read-out: Activity category Assay 1 (EC50, THR-beta agonist); for Emax: Table 5, Assay 1, THRβ, read-out: Activity category Assay 1 THRβ (Emax)
T1 construct: purchased Invitrogen
T1 sequence (P10828 217-461 limits assumed): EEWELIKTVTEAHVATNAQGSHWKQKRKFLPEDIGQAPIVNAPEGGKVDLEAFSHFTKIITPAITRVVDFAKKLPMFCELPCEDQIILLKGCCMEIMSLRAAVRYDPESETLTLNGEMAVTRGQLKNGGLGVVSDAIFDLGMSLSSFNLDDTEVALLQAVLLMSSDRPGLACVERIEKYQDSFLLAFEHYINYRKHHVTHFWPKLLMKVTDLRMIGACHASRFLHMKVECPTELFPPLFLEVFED
How it was run: (§1)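 Agonist-driven coactivator recruitment measured by TR-FRET: terbium anti-GST antibody (2 nM) bound to GST-LBD of TRβ or TRα (1 nM final, stated for β), with fluorescein SRC2-2 peptide at 200 nM. Compounds at 1% DMSO. Read after 1 h, room temperature, protected from light.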

[2] = target: T2, human thyroid receptor alpha ligand-binding domain (LBD) (Homo sapiens, UniProt P10827); assay: TR-FRET thyroid receptor alpha coactivator assay (THR biochemical assay, Assay 1); details: for EC50: Table 4, THR-alpha, read-out: Activity category Assay 1 (EC50, THR-alpha agonist activity); for Emax: Table 5, THRα, read-out: Activity category Assay 1 THRα (Emax)
T2 construct: purchased Invitrogen
How it was run: as §1

THR beta = target: T3, THR beta (Homo sapiens, UniProt P10828); assay: HEK293T THR beta/RXR luciferase reporter assay (Assay 2); assay type: cell-based; details: for Emax: HEK-293T, Table 5, Assay 2, THRβ, read-out: Activity category Assay 2 THRβ (Emax); for EC50: THR-beta, HEK293T reporter assay, read-out: Activity category Assay 2 (EC50, THR-beta agonist)
T3 construct: expressed in transfected cells; host or cells: HEK293T (ATCC CRL-3216)
T3 sequence (P10828 1-461): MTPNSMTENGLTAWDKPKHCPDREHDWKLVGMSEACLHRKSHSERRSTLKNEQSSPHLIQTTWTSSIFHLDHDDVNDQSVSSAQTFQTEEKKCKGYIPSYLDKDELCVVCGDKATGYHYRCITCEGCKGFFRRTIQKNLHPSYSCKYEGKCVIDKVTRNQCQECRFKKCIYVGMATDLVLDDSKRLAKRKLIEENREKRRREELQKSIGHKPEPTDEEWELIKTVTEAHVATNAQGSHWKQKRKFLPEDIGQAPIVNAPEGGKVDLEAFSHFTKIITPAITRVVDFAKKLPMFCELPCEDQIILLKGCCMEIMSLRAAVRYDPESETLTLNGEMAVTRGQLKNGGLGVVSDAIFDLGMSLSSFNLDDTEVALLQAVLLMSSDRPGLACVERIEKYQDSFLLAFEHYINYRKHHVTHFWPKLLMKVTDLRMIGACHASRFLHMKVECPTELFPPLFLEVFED
T3 sequence (P19793 1-462 partner): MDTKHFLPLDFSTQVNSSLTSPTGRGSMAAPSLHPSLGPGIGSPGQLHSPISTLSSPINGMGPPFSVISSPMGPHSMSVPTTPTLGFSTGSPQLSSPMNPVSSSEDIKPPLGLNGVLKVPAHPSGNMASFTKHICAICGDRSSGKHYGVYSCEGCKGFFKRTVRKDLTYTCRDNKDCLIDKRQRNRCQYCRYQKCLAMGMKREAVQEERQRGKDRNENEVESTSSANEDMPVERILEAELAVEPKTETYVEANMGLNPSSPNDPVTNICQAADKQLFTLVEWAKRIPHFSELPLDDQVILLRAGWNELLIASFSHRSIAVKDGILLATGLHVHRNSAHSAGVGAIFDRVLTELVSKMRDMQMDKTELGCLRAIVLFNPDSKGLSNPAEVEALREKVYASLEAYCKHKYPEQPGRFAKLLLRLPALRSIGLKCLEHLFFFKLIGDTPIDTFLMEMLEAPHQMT
Method: (§2) HEK293T Reporter THRalpha/Beta/RXR Reporter Assay (Assay 2)
(§3) The purpose of this assay is to evaluate the effect of compounds on the thyroid hormone nuclear receptor pathway in HEK293T cells. To this end, HEK293T cells are transiently transfected with a luciferase reporter under the control of the thyroid response element (TRE), an RXR expression plasmid and either a THR alpha or THR beta expression plasmid. Transfected cells are stimulated with test compounds for 18-24 hours before activation of the thyroid hormone pathway is measured via a luciferase read-out.
(§4) Procedure. […] Ten five-fold dilutions of test compounds are prepared in DMSO and 30 nL are dispensed to the cells. […] Approximately 18-24 h after compound addition, 384 well plates are allowed to adjust to rt, 30 μL One-Glo (Promega catalog #E6120) is added to each well and luminescence is measured on a Perkin Elmer Enspire plate reader. Percent agonism is calculated using the following equation: 100× (sample-negative control)/(positive control-negative control).

THR alpha = target: T4, THR alpha (Homo sapiens, UniProt P10827); assay: HEK293T THR alpha/RXR luciferase reporter assay (Assay 2); assay type: cell-based; details: Assay 2; for Emax: HEK-293T, Table 5, THRα, read-out: Activity category Assay 2 THRα (Emax); for EC50: Table 4, THR-alpha, read-out: Activity category Assay 2 (EC50, THR-alpha agonist activity)
T4 construct: expressed in transfected cells; host or cells: HEK293T (ATCC CRL-3216)
T4 sequence (P10827 1-410 isoform P10827-2): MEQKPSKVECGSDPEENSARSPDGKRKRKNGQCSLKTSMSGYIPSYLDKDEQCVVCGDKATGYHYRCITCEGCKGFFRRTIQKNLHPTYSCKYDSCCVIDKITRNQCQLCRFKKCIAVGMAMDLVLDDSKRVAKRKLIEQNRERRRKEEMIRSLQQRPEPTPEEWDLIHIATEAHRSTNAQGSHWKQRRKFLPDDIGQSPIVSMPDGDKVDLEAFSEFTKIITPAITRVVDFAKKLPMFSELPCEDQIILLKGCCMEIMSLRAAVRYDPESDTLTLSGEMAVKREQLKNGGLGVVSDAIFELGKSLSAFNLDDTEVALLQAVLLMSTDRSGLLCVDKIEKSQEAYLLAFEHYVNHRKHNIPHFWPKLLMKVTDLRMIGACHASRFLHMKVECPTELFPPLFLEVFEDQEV
T4 sequence (P19793 1-462 partner): T3 sequence (P19793 1-462 partner)
Method: as §2, §3, §4

Structure (SMILES)	EC50 [1] [nM]	Emax [1] [%]	EC50 [2] [nM]	Emax [2] [%]	Emax (THR beta) [%]	EC50 (THR beta) [nM]	Emax (THR alpha) [%]	EC50 (THR alpha) [nM]
CC(c1c[nH]c2ccc(Oc3c(Cl)cc(-n4nc(C#N)c(=O)[nH]c4=O)cc3Cl)cc12)C(F)(F)F (centres unmarked) [Compound 45, 2-(3,5-dichloro-4-[[3-(1,1,1-trifluoropropan-2-yl)-1H-indol-5-yl]oxy]phenyl)-3,5-dioxo-4H-1,2,4-triazine-6-carbonitrile]	< 50	< 50	< 50	< 50	> 75	50 to 250	> 75	250 to 1000
N#Cc1nn(-c2cc(Cl)c(Oc3ccc4[nH]cc(Cc5ccccc5)c4c3)c(Cl)c2)c(=O)[nH]c1=O [Compound 46, 2-[4-[(3-benzyl-1H-indol-5-yl)oxy]-3,5-dichlorophenyl]-3,5-dioxo-4H-1,2,4-triazine-6-carbonitrile]	< 50	< 50	> 25000	< 50	50 to 75	1000 to 10000	< 50	> 10000
N#Cc1nn(-c2cc(Cl)c(Oc3ccc4[nH]ccc4c3)c(Cl)c2)c(=O)[nH]c1=O [Compound 47, 2-[3,5-dichloro-4-(1H-indol-5-yloxy)phenyl]-3,5-dioxo-4H-1,2,4-triazine-6-carbonitrile]	< 50	< 50	< 50	< 50	> 75	1000 to 10000	> 75	1000 to 10000
CCCc1c[nH]c2ccc(Oc3c(Cl)cc(-n4nc(C#N)c(=O)[nH]c4=O)cc3Cl)cc12 [Compound 48, 2-[3,5-dichloro-4-[(3-propyl-1H-indol-5-yl)oxy]phenyl]-3,5-dioxo-4H-1,2,4-triazine-6-carbonitrile]	< 50	50 to 75	< 50	50 to 75	> 75	50 to 250	> 75	250 to 1000
CC(C)Cc1c[nH]c2ccc(Oc3c(Cl)cc(-n4nc(C#N)c(=O)[nH]c4=O)cc3Cl)cc12 [Compound 49, 2-(3,5-dichloro-4-[[3-(2-methylpropyl)-1H-indol-5-yl]oxy]phenyl)-3,5-dioxo-4H-1,2,4-triazine-6-carbonitrile]	< 50	< 50	< 50	< 50	> 75	250 to 1000	< 50	250 to 1000
N#Cc1nn(-c2cc(Cl)c(Oc3ccc4[nH]cc(CC5CC5)c4c3)c(Cl)c2)c(=O)[nH]c1=O [Compound 50, 2-(3,5-dichloro-4-[[3-(cyclopropylmethyl)-1H-indol-5-yl]oxy]phenyl)-3,5-dioxo-4H-1,2,4-triazine-6-carbonitrile]	< 50	50 to 75	< 50	50 to 75	> 75	50 to 250	> 75	250 to 1000
CC(C)c1c[nH]c2nnc(Oc3c(Cl)cc(-n4nc(N)c(=O)[nH]c4=O)cc3Cl)cc12 [Compound 53, 6-amino-2-[3,5-dichloro-4-([5-isopropyl-7H-pyrrolo[2,3-c]pyridazin-3-yl]oxy)phenyl]-4H-1,2,4-triazine-3,5-dione]	< 50	50 to 75	250 to 1000	< 50	> 75	250 to 1000	> 75	1000 to 10000
Cc1cc(-n2ncc(=O)[nH]c2=O)cc(C)c1Cc1cnc2[nH]cc(C(C)C)c2n1 [Compound 56, 2-(4-((7-isopropyl-5H-pyrrolo[2,3-b]pyrazin-2-yl)methyl)-3,5-dimethylphenyl)-1,2,4-triazine-3,5(2H,4H)-dione]	< 50	< 50	250 to 1000	< 50	> 75	50 to 250	50 to 75	50 to 250
Cc1cc(-n2nc(C#N)c(=O)[nH]c2=O)cc(C)c1Cc1ccc2[nH]nc(C(C)C)c2c1 [Compound 57, 2-(4-((3-Isopropyl-1H-indazol-5-yl)methyl)-3,5-dimethylphenyl)-3,5-dioxo-2,3,4,5-tetrahydro-1,2,4-triazine-6-carbonitrile]	< 50	< 50	< 50	< 50	> 75	50 to 250	> 75	250 to 1000
Nc1nn(-c2cc(Cl)c(Oc3cc(C4CCCCC4)c(=O)[nH]n3)c(Cl)c2)c(=O)[nH]c1=O [Compound 58]	< 50	< 50	250 to 1000	< 50	> 75	50 to 250	50 to 75	250 to 1000
Nc1nn(-c2cc(Cl)c(Oc3cc(C4CCOCC4)c(=O)[nH]n3)c(Cl)c2)c(=O)[nH]c1=O [Compound 59, 6-amino-2-(3,5-dichloro-4-[[5-(oxan-4-yl)-6-oxo-1H-pyridazin-3-yl]oxy]phenyl)-4H-1,2,4-triazine-3,5-dione]	1000 to 25000	< 50	1000 to 25000	< 50	> 75	1000 to 10000	50 to 75	> 10000
CC(C)(O)c1cc(Oc2c(Cl)cc(-n3nc(N)c(=O)[nH]c3=O)cc2Cl)n[nH]c1=O [Compound 60, 6-amino-2-(3,5-dichloro-4-[[5-(2-hydroxypropan-2-yl)-6-oxo-1H-pyridazin-3-yl]oxy]phenyl)-4H-1,2,4-triazine-3,5-dione]	250 to 1000	< 50	1000 to 25000	< 50	> 75	1000 to 10000	> 75	1000 to 10000
C=C(C)c1cc(Oc2c(Cl)cc(-n3nc(N)c(=O)[nH]c3=O)cc2Cl)n[nH]c1=O [Compound 60-A, 6-amino-2-(3,5-dichloro-4-[[6-oxo-5-(prop-1-en-2-yl)-1H-pyridazin-3-yl]oxy]phenyl)-4H-1,2,4-triazine-3,5-dione]	< 50	< 50	50 to 250	< 50	50 to 75	250 to 1000	< 50	250 to 1000
